Data from patent US20130184272A1, “DIABETES THERAPEUTIC AGENT” (TAKEDA PHARMACEUTICAL COMPANY LIMITED, priority 2010, published 2013).

Assays:
[1] = system: C3H10T1/2 cells; assay: Adipocyte differentiation suppressive action; assay type: cell-based; settings: for cell number (number of nucleus/visual field) / lipid droplet area (lipid droplet stained area/cell number): DM, 9 days
Description: C3H10T1/2 cells (Dainippon Pharmaceutical Co., Ltd.) were cultured in a growth medium until confluence. 1 μM dexamethasone, 0.5 mM 3-isobutyl-1-methylxanthine and 5 μg/mL insulin were added to the medium, and the cells were cultured for 3 days. The medium was exchanged with a growth medium added with 4 μg/mL insulin and the cells were cultured for 3 more days and cultured in a growth medium for 3 days. When the compound was added, it was added for 9 days after reaching confluence and the cells were cultured. The cells were fixed with 3.7% formalin, lipid droplet was stained with 100 nM BODIPY 493/503 (Molecular Probes), nucleus was stained with 2 μM Hoechst33258 (Acros Organics), and analyzed by IN Cell analyzer (GE Healthcare). The data of Table 15 show mean±standard deviation at n=4 (n is the number of samples).

[2] = system: phosphorylated acetyl-CoA carboxylase (ACC); assay: Phosphorylated acetyl-CoA carboxylase (ACC) amount in muscle cell; assay type: cell-based, Mouse; settings: for Phospho-ACC amount (%): 3 days, amended with total ACC, no compound = 100%
Description: • (1) In the same manner as in Example 1, C2C12 cells were cultured in a growth medium. After reaching subconfluence of not less than 90%, the medium was exchanged with a differentiation medium and the cells were cultured for about 4 days while exchanging the medium every 2 or 3 days until the cells differentiated to form a myotube. • (2) After confirmation of myotube formation under a microscope, the test compound (0.1-10 nM) was added to a differentiation medium and cultured for 3 days. Thereafter, the cells were fixed with 4% formaldehyde phosphate buffer for 10 min, and washed 4 times with PBS containing 0.1% TritonX-100. • (3) Odyssey Blocking Buffer (LI-COR Biosciences) was added, and the mixture was incubated at room temperature for 1 hr. Thereafter, primary antibody (ACCα (T-18) (Santacruz) and Phospho-ACC (Ser79) (Upstate)) were added, and the mixture was incubated at 4° C. overnight. • (4) The cells were washed 4 times with PBS containing 0.1% Tween20, secondary antibody (Donkey anti-goat IRDye 800CW (LI-COR Biosciences) and Donkey anti-mouse IRDye 680 (LI-COR Biosciences)) were added and the mixture was incubated under shading at room temperature for 1 hr. • (5) The cells were washed 4 times with PBS containing 0.1% Tween20, PBS was added, and the phospho-ACC amount and total ACC amount were measured using Odyssey2.1 (LI-COR Biosciences).
The numerical values in Table 20 were obtained by amending the phospho-ACC amount with total ACC amount and are shown based on the absence of addition of the compound as 100%. n is the number of samples.

[3] = system: myogenin; assay: Muscle-related gene expression in myoblast: myogenin; assay type: cell-based, Mouse; settings: for Myogenin/36B4 expression level: 10 μM, 1 day, relative value
[4] = system: Male FisherF344 rats fed with a high-fat diet; assay: Antiobesity action and dyslipidemia improving effect in high-fat diet-loaded rat; assay type: in vivo
Description: Male FisherF344 rats (CLEA Japan, Inc.) fed with a high-fat diet (45 kcal % fat, D12451, research diet) for 38 weeks from 5 weeks of age were used. They were bred with a powder high-fat diet (D12451M) for 4 weeks for acclimation, measured for body weight, body composition, amount of ingestion and plasma component, and divided into 3 groups (6 per group) without difference between them. The plasma components (total cholesterol, triglyceride, glucose concentration) were measured by HITACHI automatic analyzer 7070. As the body composition, total fat mass, body fat percentage, lean body mass of lower leg, and visceral fat mass were measured by X-ray CT apparatus (LCT-100A, LaTheta). The compound of Reference Example 1 was suspended in aqueous methylcellulose solution and orally administered repeatedly to 2 groups of the rats divided into 3 groups at 0.03 mg/kg or 0.1 mg/kg once a day for 14 days. A 0.5% aqueous methylcellulose solution was orally administered similarly to the remaining one group and used as a control group. On the administration completion day, the blood was drawn again from the tail vein, and plasma levels of total cholesterol, triglyceride, glucose, insulin and leptin, and body weight and body composition (total fat mass, body fat percentage, lean body mass of lower leg, visceral fat mass) were measured. The amount of ingestion was calculated from the amount of the feed given and the amount left, and the total of the test period was calculated. The numerical values in Table 11 and Table 12 show mean±standard deviation at n=5-6 (n is the number of rats).

[5] = system: MyoD; assay: Muscle-related gene expression in myoblast: MyoD; assay type: cell-based, Mouse; settings: for MyoD/36B4 expression level: 10 μM, 1 day, relative value
[6] = C2C12 cells cultured in a differentiation medium
[7] = 0.03 mg/kg oral once a day, 14 days
[8] = 0.1 mg/kg oral once a day, 14 days

Cc1ncccc1Oc1sc(C(N)=O)c2c1-c1c(cnn1C)CC2 [Ref. Ex. 1, 1-methyl-8-[(2-methylpyridin-3-yl)oxy]-4,5-dihydro-1H-thieno[3,4-g]indazole-6-carboxamide]
cell number (number of nucleus/visual field) ([1]; compound 0.1 nM): 303 ± 28 | lipid droplet area (lipid droplet stained area/cell number) ([1]; compound 0.1 nM): 9625 | cell number (number of nucleus/visual field) ([1]; compound 1 nM): 295 ± 15 | lipid droplet area (lipid droplet stained area/cell number) ([1]; compound 1 nM): 5703 | cell number (number of nucleus/visual field) ([1]; compound 10 nM): 318 ± 9 | lipid droplet area (lipid droplet stained area/cell number) ([1]; compound 10 nM): 2010 | cell number (in words) ([1]; adipocyte differentiation): without affecting | intracellular lipid accumulation (in words) ([1]; adipocyte differentiation): decreased | Phospho-ACC amount (%) ([2]; compound 0.1 nM): 112% | Phospho-ACC amount (%) ([2]; compound 0.3 nM): 125% | Phospho-ACC amount (%) ([2]; compound 1 nM): 136% | Phospho-ACC amount (%) ([2]; compound 3 nM): 167% | Phospho-ACC amount (%) ([2]; compound 10 nM): 163% | phospho-ACC amount (in words) ([2]; differentiated C2C12 muscle cell): increased | expression of myogenin (in words) [3, 6]: promoted | Myogenin/36B4 expression level ([3]; DM (differentiation medium)): 3.81 ± 0.55 | Myogenin/36B4 expression level ([3]; GM (growth medium)): 0.03 ± 0.00 | amount of ingestion (g/2 weeks) [4, 7]: 165.8 ± 13.9 g/2 weeks | body fat percentage, change rate (%) [4, 7]: 3.5 ± 1.5 % | body weight [4, 7]: 460.8 ± 15.3 g | body weight, amount of change [4, 7]: -3.8 ± 7.5 g | lean body mass (g) of lower leg [4, 7]: 82.9 ± 5.2 g | lean body mass of lower leg, amount of change [4, 7]: 8.4 ± 1.7 g | plasma glucose [4, 7]: 142.3 ± 5.6 mg/dL | plasma insulin [4, 7]: 5.2 ± 1.0 ng/mL | plasma leptin [4, 7]: 1.2 ± 0.4 ng/dL | plasma total cholesterol [4, 7]: 102.3 ± 12.6 mg/dL | plasma triglyceride [4, 7]: 242.4 ± 92.5 mg/dL | total fat mass [4, 7]: 138.0 ± 16.6 g | total fat mass, amount of change [4, 7]: -17.5 ± 8.8 g | visceral fat mass [4, 7]: 53.8 ± 6.1 g | visceral fat mass, amount of change [4, 7]: -4.3 ± 3.4 g | amount of ingestion (g/2 weeks) [4, 8]: 127.9 ± 21.2 g/2 weeks | body fat percentage (%) [4, 8]: 26.9 ± 2.6 % | body fat percentage, change rate (%) [4, 8]: −7.1 ± 1.1 % | body weight [4, 8]: 446.5 ± 38.1 g | body weight, amount of change [4, 8]: -19.5 ± 11.0 g | lean body mass (g) of lower leg [4, 8]: 84.5 ± 6.9 g | lean body mass of lower leg, amount of change [4, 8]: 9.8 ± 4.2 g | plasma glucose [4, 8]: 146.3 ± 5.9 mg/dL | plasma insulin [4, 8]: 2.8 ± 1.1 ng/mL | plasma leptin [4, 8]: 0.6 ± 0.4 ng/dL | plasma total cholesterol [4, 8]: 77.3 ± 9.6 mg/dL | plasma triglyceride [4, 8]: 100.1 ± 43.1 mg/dL | total fat mass [4, 8]: 120.5 ± 18.2 g | total fat mass, amount of change [4, 8]: -38.1 ± 6.7 g | visceral fat mass [4, 8]: 47.2 ± 9.0 g | visceral fat mass, amount of change [4, 8]: -11.0 ± 2.9 g | body weight (in words) ([4]; administration at 0.1 mg/kg): clear body weight decreasing action | expression of MyoD (in words) [5, 6]: increased | MyoD/36B4 expression level ([5]; DM (differentiation medium)): 1.59 ± 0.20 | MyoD/36B4 expression level ([5]; GM (growth medium)): 1.26 ± 0.10
